Molecular target: T1, human kinase Mps-1 (Homo sapiens, UniProt P33981)
T1 construct: N-terminally GST-tagged human full length recombinant Mps-1 kinase; GST (N); purchased Invitrogen, Karslruhe, Germany PV4071
T1 sequence (P33981 1-857): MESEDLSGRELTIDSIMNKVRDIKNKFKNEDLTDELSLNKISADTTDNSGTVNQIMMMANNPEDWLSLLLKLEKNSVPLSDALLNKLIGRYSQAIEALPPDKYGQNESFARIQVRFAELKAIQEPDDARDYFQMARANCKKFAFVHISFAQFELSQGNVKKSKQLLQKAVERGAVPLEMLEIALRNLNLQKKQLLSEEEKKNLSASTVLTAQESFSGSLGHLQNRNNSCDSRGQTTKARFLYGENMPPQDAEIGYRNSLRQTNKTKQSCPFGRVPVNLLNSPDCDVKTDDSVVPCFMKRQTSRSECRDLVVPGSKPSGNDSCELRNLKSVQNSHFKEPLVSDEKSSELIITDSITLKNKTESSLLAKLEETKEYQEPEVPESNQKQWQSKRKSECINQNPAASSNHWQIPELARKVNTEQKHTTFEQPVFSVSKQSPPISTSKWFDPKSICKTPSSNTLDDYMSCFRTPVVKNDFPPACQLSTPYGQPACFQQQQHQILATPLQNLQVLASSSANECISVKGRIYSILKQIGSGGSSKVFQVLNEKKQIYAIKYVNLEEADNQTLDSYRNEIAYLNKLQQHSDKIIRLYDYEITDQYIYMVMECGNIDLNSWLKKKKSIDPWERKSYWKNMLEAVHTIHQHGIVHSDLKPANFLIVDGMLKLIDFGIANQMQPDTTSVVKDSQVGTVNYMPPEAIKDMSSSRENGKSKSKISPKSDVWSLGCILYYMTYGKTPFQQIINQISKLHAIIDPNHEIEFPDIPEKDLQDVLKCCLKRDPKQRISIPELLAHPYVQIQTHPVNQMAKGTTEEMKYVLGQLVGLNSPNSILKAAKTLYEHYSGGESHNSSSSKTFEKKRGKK
Assay: Mps-1 kinase assay (TR-FRET)
Assay type: biochemical
Conditions: Mps-1 TR-FRET kinase assay; avg; read-out: Mps1 avg (IC50 [mol/l])
Experimental: The human kinase Mps-1 phosphorylates a biotinylated substrate peptide. Detection of the phosphorylated product is achieved by time-resolved fluorescence resonance energy transfer (TR-FRET) from Europium-labelled anti-phospho-Serine/Threonine antibody as donor to streptavidin labelled with cross-linked allophycocyanin (SA-XLent) as acceptor. Compounds are tested for their inhibition of the kinase activity.
N-terminally GST-tagged human full length recombinant Mps-1 kinase (purchased from Invitrogen, Karslruhe, Germany, cat. no PV4071) was used. As substrate for the kinase reaction a biotinylated peptide of the amino-acid sequence biotin-Ahx-PWDPDDADITEILG (C-terminus in amide form, purchased from Biosyntan GmbH, Berlin) was used.
For the assay 50 nl of a 100-fold concentrated solution of the test compound in DMSO was pipetted into a black low volume 384we11 microtiter plate (Greiner Bio-One, Frickenhausen, Germany), 2 μl of a solution of Mps-1 in assay buffer [0.1 mM sodium-ortho-vanadate, 10 mM MgCl2,2 mM DTT, 25 mM Hepes pH 7.7, 0.05% BSA (w/v), 0.001% Pluronic F-127] were added and the mixture was incubated for 15 min at 22° C. to allow pre-binding of the test compounds to Mps-1 before the start of the kinase reaction. Then the kinase reaction was started by the addition of 3 μl of a solution of 16.7 μM adenosine-tri-phosphate (ATP, 16.7 μM=>final conc. in the 5 μl assay volume is 10 μM) and peptide substrate (1.67 μM=>final conc. in the 5 μl assay volume is 1 μM) in assay buffer and the resulting mixture was incubated for a reaction time of 60 min at 22° C. The concentration of Mps-1 in the assay was adjusted to the activity of the enzyme lot and was chosen appropriate to have the assay in the linear range, typical enzyme concentrations were in the range of about 0.5 nM (final conc. in the 5 μl assay volume). The reaction was stopped by the addition of 5 μl of a solution of TR-FRET detection reagents (100 mM Hepes pH 7.4, 0.1% BSA, 40 mM EDTA, 140 nM Streptavidin-XLent [#61GSTXLB, Fa. Cis Biointernational, Marcoule, France], 1.5 nM anti-phospho(Ser/Thr)-Europium-antibody [#AD0180, PerkinElmer LAS, Rodgau-Jugesheinn, Germany]. Instead of the 1.5 nM anti-phospho(Ser/Thr)-Europium-antibody a mixture of 2 nM unlabeled anti-phospho ser/thr-pro antibody MPM-2 [Millipore cat. #05-368] and 1 nM LANCE EU-W1024 labeled anti-mouse IgG antibody [Perkin-Elmer, product no. AD0077] can be used).
The resulting mixture was incubated 1 h at 22° C. to allow the binding of the phosphorylated peptide to the anti-phospho(Ser/Thr)-Europium-antibody. Subsequently the amount of phosphorylated substrate was evaluated by measurement of the resonance energy transfer from the Europium-labelled anti-phospho(Ser/Thr) antibody to the Streptavidin-XLent. Therefore, the fluorescence emissions at 620 nm and 665 nm after excitation at 350 nm was measured in a Viewlux TR-FRET reader (PerkinElmer LAS, Rodgau-Jugesheinn, Germany). The “blank-corrected normalized ratio” (a Viewlux specific readout, similar to the traditional ratio of the emissions at 665 nm and at 622 nm, in which blank and Eu-donor crosstalk are subtracted from the 665 nm signal before the ratio is calculated) was taken as the measure for the amount of phosphorylated substrate. The data were normalised (enzyme reaction without inhibitor=0% inhibition, all other assay components but no enzyme=100% inhibition).

SMILES	IC50 [µM]
Cc1nsc(Nc2cnc(C(F)(F)F)cn2)c1C(=O)Nc1ccc(OC2CCNCC2)nc1 [Example 6, 3-Methyl-N-[6-(piperidin-4-yloxy)pyridin-3-yl]-5-{[5-(trifluoromethyl)pyrazin-2-yl]amino}-1,2-thiazole-4-carboxamide]	≥ 20
Cc1nsc(Nc2cnc(C(F)(F)F)cn2)c1C(=O)Nc1ccc(OC2CCN(CCF)CC2)nc1 [Example 7, N-(6-{[1-(2-Fluoroethyl)piperidin-4-yl]oxy}pyridin-3-yl)-3-methyl-5-{[5-(trifluoromethyl)pyrazin-2-yl]amino}-1,2-thiazole-4-carboxamide]	≥ 20
Cc1nsc(Nc2cnc(C(F)(F)F)cn2)c1C(=O)Nc1ccc(OC2CCN(CC(F)F)CC2)nc1 [Example 8, N-(6-{[1-(2,2-Difluoroethyl)piperidin-4-yl]oxy}pyridin-3-yl)-3-methyl-5-{[5-(trifluoromethyl)pyrazin-2-yl]amino}-1,2-thiazole-4-carboxamide]	≥ 20
Cc1nsc(Nc2cnc(C(F)(F)F)cn2)c1C(=O)Nc1ccc(OC2CCN(CC(F)(F)F)CC2)nc1 [Example 9, -Methyl-N-(6-{[1-(2,2,2-trifluoroethyl)piperidin-4-yl]oxy}pyridin-3-yl)-5-{[5-(trifluoromethyl)pyrazin-2-yl]amino}-1,2-thiazole-4-carboxamide]	≥ 20
Cc1nsc(Nc2cnc(C(F)(F)F)cn2)c1C(=O)Nc1ccc(OC2CCN(CCC(F)(F)F)CC2)nc1 [Example 10, 3-Methyl-5-{[5-(trifluoromethyl)pyrazin-2-yl]amino}-N-(6-{[1-(3,3,3-trifluoropropyl)-piperidin-4-yl]oxy}pyridin-3-yl)-1,2-thiazole-4-carboxamide]	≥ 20
CC(=O)N1CCC(Oc2ccc(NC(=O)c3c(C)nsc3Nc3cnc(C(F)(F)F)cn3)cn2)CC1 [Example 11, N-{6-[(1-Acetylpiperidin-4-yl)oxy]pyridin-3-yl}-3-methyl-5-{[5-(trifluoromethyl)-pyrazin-2-yl]amino}-1,2-thiazole-4-carboxamide]	≥ 20
Cc1nsc(Nc2cncc(C(F)(F)F)n2)c1C(=O)Nc1ccc(OC2CCN(C(=O)OC(C)(C)C)CC2)nc1 [Example 12, tert-Butyl 4-[(5-{[(3-methyl-5-{[6-(trifluoromethyl)pyrazin-2-yl]amino}-1,2-thiazol-4-yl)carbonyl]amino}pyridin-2-yl)oxy]piperidine-1-carboxylate]	≥ 20
Cc1nsc(Nc2cnc(C(F)(F)F)cn2)c1C(=O)Nc1ccc(C(=O)OC(C)(C)C)cc1 [Example 96, tert-Butyl 4-{[(3-methyl-5-{[5-(trifluoromethyl)pyrazin-2-yl]amino}-1,2-thiazol-4-yl)carbonyl]amino}benzoate]	≥ 20
Cc1nsc(Nc2cnc(C(F)(F)F)cn2)c1C(=O)Nc1ccc(C(=O)O)cc1 [Example 97, 4-{[(3-Methyl-5-{[5-(trifluoromethyl)pyrazin-2-yl]amino}-1,2-thiazol-4-yl)carbony]-amino}benzoic acid]	≥ 20
Cc1nsc(Nc2ccc(C#N)cn2)c1C(=O)Nc1ccc(C(=O)OC(C)(C)C)cc1 [Example 98, tert-Butyl 4-[({5-[(5-cyanopyridin-2-yl)amino]-3-methyl-1,2-thiazol-4-yl}carbonyl)-amino]benzoate]	≥ 20
Cc1nsc(Nc2cnc3ccccc3n2)c1C(=O)Nc1cccc(C(=O)NCC(=O)O)c1 [Example 99, N-[3-({[3-Methyl-5-(quinoxalin-2-ylamino)-1,2-thiazol-4-yl]carbonyl}amino)benzoy]-glycine]	9
COC(=O)CNC(=O)c1cccc(NC(=O)c2c(C)nsc2Nc2cnc3ccccc3n2)c1 [Example 100, Methyl N-[3-({[3-methyl-5-(quinoxalin-2-ylamino)-1,2-thiazol-4-yl]carbonyl}amino)-benzoyl]glycinate]	12
Cc1nsc(Nc2cnc3ccccc3n2)c1C(=O)Nc1cccc(C(=O)N2CCNCC2)c1 [Example 101, 3-Methyl-N-[3-(piperazin-1-ylcarbonyl)phenyl]-5-(quinoxalin-2-ylamino)-1,2-thiazole-4-carboxamide]	18
Cc1nsc(Nc2cnc3ccccc3n2)c1C(=O)Nc1cccc(C(=O)N2CCN(C)CC2)c1 [Example 102, 3-Methyl-N-{3-[(4-methylpiperazin-1-yl)carbonyl]phenyl}-5-(quinoxalin-2-ylamino)-1,2-thiazole-4-carboxamide]	≥ 20
Cc1nsc(Nc2cnc3ccccc3n2)c1C(=O)Nc1cccc(C(=O)N[C@@H](CCC(N)=O)C(=O)O)c1 [Example 103, N^2-[3-({[3-Methyl-5-(quinoxalin-2-ylamino)-1,2-thiazol-4-yl]carbonyl}amino)-benzoyl]glutamine]	13
Cc1nsc(Nc2cnc3ccccc3n2)c1C(=O)Nc1cccc(C(=O)N[C@H](C(=O)O)[C@@H](C)OC(C)(C)C)c1 [Example 104, O-tert-Butyl-N-[3-({[3-methyl-5-(quinoxalin-2-ylamino)-1,2-thiazol-4-yl]-carbonyl}amino)benzoyl]threonine]	16
Cc1nsc(Nc2cnc3ccccc3n2)c1C(=O)Nc1cccc(C(=O)N[C@H](C(=O)O)[C@@H](C)O)c1 [Example 105, N-[3-({[3-methyl-5-(quinoxalin-2-ylamino)-1,2-thiazol-4-yl]carbonyl}amino)-benzoyl]threonine]	6.5
Cc1noc(-c2cccc(NC(=O)c3c(C)nsc3Nc3cnc4ccccc4n3)c2)n1 [Example 106, 3-Methyl-N-[3-(3-methyl-1,2,4-oxadiazol-5-yl)phenyl]-5-(quinoxalin-2-ylamino)-1,2-thiazole-4-carboxamide]	≥ 20
Cc1nsc(Nc2cnc3ccccc3n2)c1C(=O)Nc1cccc(-c2nnc(C(C)(C)C)o2)c1 [Example 107, N-[3-(5-tert-Butyl-1,3,4-oxadiazol-2-yl)phenyl]-3-methyl-5-(quinoxalin-2-ylamino)-1,2-thiazole-4-carboxamide]	≥ 20
Cc1nsc(Nc2cnc3ccccc3n2)c1C(=O)Nc1cccc(-c2nc(C(C)(C)C)no2)c1 [Example 108, N-[3-(3-tert-Butyl-1,2,4-oxadiazol-5-yl)phenyl]-3-methyl-5-(quinoxalin-2-ylamino)-1,2-thiazole-4-carboxamide]	≥ 20

Reference: patent US20170334899A1, “AMINO-SUBSTITUTED ISOTHIAZOLES” (Bayer Pharma Aktiengesellschaft, priority 2014, published 2017)
